Laboratory results as given in ChEMBL document CHEMBL1201862, “PubChem BioAssay data set” (2004).
Active and inactive are the calls of the source.

Assays:
[1] = target: T1, High affinity choline transporter 1 (Homo sapiens, UniProt Q9GZV3); assay: CHT inhibitors, dose response, cell-based, 5-point CRC, membrane potential dye (AID 504840); format: functional
T1 sequence (Q9GZV3 whole entry): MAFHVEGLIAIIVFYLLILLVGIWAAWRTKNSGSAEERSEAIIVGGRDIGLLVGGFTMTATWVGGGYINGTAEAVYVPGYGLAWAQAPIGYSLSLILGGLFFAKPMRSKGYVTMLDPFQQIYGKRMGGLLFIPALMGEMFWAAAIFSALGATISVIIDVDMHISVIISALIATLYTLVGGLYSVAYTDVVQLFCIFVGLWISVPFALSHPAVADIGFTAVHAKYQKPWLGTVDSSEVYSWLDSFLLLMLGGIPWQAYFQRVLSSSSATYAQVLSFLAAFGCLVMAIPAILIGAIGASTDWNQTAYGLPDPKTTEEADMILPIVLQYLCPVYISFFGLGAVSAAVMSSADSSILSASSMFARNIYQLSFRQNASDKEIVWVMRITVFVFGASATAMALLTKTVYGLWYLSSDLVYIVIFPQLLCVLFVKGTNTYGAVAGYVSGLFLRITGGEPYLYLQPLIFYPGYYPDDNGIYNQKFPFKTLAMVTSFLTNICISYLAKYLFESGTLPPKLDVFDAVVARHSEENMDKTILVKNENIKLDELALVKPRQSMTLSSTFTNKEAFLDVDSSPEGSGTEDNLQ

Aminopeptidase N = target: T2, Aminopeptidase N (Plasmodium falciparum FcB1/Columbia, UniProt O96935); assay: P. falciparum M1AAP inhibitors, biochemical, fluorogenic H-Leu-NHMec substrate, 1536-well (AID 1445); set-up: species or system Plasmodium falciparum 3D7, 3D7
T2 sequence (O96935 whole entry): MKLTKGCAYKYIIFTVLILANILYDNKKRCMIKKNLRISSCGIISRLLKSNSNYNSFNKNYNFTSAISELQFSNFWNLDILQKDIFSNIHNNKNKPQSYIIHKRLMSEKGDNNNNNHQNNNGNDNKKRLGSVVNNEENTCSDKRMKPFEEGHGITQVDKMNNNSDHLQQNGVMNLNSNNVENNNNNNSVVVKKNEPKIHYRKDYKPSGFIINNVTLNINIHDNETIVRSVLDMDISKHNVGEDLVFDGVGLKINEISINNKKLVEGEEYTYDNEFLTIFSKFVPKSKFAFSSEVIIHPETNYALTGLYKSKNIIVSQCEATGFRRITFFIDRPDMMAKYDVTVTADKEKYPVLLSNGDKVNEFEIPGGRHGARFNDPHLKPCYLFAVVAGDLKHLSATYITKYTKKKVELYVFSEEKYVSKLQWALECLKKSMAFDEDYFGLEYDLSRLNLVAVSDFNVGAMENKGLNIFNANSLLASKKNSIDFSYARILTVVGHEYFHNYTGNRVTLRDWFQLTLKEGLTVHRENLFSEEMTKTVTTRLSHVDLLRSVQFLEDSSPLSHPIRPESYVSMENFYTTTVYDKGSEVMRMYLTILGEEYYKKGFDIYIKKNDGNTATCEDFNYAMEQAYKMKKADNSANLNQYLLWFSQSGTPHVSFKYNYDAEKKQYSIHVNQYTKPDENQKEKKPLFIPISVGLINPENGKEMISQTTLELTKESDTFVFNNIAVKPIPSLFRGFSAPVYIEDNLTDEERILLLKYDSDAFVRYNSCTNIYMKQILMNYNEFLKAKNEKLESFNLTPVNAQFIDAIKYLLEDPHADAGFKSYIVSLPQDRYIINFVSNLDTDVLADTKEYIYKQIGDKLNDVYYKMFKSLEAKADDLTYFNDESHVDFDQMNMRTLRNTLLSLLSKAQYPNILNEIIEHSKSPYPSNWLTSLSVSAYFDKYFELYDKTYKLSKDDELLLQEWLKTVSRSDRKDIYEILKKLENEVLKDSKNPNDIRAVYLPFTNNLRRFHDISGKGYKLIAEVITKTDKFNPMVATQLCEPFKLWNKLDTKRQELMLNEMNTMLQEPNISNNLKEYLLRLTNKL

[2] = HEp-2 cell cytotoxicity, dose response, cytotoxicity control for RSV inhibitor project, HTS (AID 2410); format: functional; conditions: human respiratory syncytial virus
[3] = microbe, parasite or virus in culture; format: functional; conditions: Mycobacterium tuberculosis
[4] = Luminescence Cell-Based Dose Retest to Confirm Inhibitors of Cancer Stem Cells. [Related pubchem assays (depositor defined):AID2717, AID2721]; format: functional, Homo sapiens; conditions: Homo sapiens
Cytochrome P450 2C9 = Cytochrome P450 2C9 (Homo sapiens, UniProt P11712)
Sequence of Cytochrome P450 2C9 (P11712 whole entry): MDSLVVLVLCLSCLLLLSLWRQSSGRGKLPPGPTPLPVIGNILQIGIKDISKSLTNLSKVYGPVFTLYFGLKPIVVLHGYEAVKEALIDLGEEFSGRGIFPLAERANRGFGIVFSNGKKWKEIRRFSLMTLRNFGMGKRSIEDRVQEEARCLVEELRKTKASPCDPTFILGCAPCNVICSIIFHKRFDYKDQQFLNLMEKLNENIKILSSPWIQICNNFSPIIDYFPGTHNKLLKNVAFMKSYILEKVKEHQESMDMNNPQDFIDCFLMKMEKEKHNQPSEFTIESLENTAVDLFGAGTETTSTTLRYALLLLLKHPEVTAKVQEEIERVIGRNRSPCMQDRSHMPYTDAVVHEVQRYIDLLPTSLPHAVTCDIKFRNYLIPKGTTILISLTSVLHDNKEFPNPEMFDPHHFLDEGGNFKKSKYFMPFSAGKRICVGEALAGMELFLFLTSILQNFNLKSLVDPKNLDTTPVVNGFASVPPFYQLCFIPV

Cytochrome P450 2C19 = Cytochrome P450 2C19 (Homo sapiens, UniProt P33261); assay: Cytochrome panel assay with activity outcomes. Panel member name: p450-cyp2c19 Compounds with AC50 equal or less than 10 uM are considered active; format: functional; conditions: read-out: AC50
Sequence of Cytochrome P450 2C19 (P33261 whole entry): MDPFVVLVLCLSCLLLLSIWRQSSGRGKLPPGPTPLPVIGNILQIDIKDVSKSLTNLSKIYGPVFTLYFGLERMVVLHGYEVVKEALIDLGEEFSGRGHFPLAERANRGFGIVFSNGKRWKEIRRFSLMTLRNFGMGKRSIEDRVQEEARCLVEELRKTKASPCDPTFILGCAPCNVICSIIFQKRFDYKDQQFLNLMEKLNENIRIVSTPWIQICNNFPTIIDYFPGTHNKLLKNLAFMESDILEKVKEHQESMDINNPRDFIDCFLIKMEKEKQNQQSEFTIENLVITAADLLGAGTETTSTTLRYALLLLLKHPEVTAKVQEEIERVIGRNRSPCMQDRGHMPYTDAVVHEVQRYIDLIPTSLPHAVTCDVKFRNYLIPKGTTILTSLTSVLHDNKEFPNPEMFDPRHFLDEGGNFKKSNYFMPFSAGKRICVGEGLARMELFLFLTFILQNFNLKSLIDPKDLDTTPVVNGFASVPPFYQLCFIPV

[5] = target: T3, Short transient receptor potential channel 4 (Mus musculus, UniProt Q9QUQ5); assay: mouse TRPC4 channel activators, dose response, cell-based, HEK293 TRPC4/mu-opioid, Fluo-4 calcium (AID 434937); format: functional
T3 sequence (Q9QUQ5 whole entry): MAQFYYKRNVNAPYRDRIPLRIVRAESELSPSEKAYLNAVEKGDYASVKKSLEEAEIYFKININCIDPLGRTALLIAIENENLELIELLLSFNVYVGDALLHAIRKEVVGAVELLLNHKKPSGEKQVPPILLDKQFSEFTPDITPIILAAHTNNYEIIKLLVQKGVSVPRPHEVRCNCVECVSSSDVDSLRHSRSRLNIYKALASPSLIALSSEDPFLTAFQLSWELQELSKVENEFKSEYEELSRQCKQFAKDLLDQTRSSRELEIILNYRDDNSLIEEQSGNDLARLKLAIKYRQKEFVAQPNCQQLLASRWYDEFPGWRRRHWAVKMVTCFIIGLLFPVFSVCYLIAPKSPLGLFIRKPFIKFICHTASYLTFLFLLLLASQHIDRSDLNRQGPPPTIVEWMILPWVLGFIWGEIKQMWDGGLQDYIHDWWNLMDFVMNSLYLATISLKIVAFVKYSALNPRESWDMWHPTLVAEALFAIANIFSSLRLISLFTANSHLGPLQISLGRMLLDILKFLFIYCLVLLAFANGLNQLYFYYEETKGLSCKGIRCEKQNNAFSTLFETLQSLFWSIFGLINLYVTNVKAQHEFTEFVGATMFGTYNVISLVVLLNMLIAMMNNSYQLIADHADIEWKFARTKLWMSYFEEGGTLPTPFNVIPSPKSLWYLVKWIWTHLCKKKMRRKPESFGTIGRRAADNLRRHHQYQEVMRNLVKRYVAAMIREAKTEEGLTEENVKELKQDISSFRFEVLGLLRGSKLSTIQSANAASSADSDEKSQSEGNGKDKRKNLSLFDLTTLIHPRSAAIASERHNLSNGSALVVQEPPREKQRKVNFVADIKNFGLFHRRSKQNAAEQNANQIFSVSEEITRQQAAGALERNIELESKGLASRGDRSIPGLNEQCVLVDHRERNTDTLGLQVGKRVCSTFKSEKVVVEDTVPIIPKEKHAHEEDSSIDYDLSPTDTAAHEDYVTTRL

[6] = growth suppression of beta-catenin-knockout colon cells, dose response, cell-based, HCT116, human colon tumor (AID 1045); format: functional;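 further: HCT116 colon tumor cells with beta catenin knocked out; cells exposed to compound for 60 hours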
[7] = growth suppression of PTEN-null colon cells, dose response, cell-based, HCT116 PTEN knockout (AID 1047); format: functional;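 further: HCT116 colon tumor cells with PTEN knocked out; cells exposed to compound for 60 hours before readout; potency for loss of cell viability measured by luminescence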
Cytochrome P450 1A2 = target: T4, Cytochrome P450 1A2 (Homo sapiens, UniProt P05177);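 further: PubChem cytochrome P450 panel assay, CYP1A2 panel member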
T4 sequence (P05177 whole entry): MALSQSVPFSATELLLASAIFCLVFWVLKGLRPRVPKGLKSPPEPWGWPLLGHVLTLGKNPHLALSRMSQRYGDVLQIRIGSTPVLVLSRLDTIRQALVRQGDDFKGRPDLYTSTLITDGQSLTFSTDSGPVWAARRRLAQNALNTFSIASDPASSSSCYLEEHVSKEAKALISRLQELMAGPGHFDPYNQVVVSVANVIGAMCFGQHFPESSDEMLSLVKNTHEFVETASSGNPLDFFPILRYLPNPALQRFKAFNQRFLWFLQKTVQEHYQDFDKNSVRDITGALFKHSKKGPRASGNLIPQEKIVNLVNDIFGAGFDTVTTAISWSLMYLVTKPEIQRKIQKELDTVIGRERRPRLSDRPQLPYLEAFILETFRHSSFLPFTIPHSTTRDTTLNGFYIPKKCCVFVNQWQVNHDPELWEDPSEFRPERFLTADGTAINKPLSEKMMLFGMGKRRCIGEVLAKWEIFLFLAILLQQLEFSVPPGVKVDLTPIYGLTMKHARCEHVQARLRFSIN

Cytochrome P450 2D6 = Cytochrome P450 2D6 (Homo sapiens, UniProt P10635);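 further: CYP2D6 member of a cytochrome P450 panel assay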
Sequence of Cytochrome P450 2D6 (P10635 whole entry, the tested form may be a part): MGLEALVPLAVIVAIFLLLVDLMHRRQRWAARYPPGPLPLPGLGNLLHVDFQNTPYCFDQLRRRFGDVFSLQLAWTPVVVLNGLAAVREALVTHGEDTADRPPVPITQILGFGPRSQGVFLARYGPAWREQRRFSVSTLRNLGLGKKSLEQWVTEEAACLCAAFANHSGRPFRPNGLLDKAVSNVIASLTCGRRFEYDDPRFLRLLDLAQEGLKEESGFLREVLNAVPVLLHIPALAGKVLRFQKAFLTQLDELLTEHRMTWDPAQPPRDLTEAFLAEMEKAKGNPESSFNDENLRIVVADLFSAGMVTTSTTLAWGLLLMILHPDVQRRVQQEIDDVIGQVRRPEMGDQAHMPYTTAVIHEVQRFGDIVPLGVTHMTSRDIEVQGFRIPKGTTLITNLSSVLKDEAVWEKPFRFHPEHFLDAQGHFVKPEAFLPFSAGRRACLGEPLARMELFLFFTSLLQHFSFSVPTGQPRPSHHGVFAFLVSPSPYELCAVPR

[8] = target: T5, RNA-binding protein pos-1 (Caenorhabditis elegans, UniProt G5EF15); assay: inhibitors of POS-1/mex-3 RNA binding, dose response, biochemical, fluorescence polarization (AID 1964);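 further: purified POS-1 fused to maltose binding protein made in E. coli; potency of compounds blocking POS-1 binding to fluorescent RNA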
T5 sequence (G5EF15 whole entry): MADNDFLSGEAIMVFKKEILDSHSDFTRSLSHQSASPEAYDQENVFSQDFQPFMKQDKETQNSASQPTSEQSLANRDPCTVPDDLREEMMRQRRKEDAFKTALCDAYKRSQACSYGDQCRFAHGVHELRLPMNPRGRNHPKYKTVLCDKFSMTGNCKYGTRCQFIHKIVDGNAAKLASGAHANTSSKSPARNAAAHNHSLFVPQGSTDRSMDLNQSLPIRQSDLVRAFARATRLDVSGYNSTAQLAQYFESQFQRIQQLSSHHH

[9] = target: T6, Zinc finger protein mex-5 (Caenorhabditis elegans, UniProt Q9XUB2); assay: MEX-5/TCR-2 RNA interaction inhibitors, dose response, biochemical, C. elegans, fluorescence polarization (AID 1960)
T6 sequence (Q9XUB2 whole entry): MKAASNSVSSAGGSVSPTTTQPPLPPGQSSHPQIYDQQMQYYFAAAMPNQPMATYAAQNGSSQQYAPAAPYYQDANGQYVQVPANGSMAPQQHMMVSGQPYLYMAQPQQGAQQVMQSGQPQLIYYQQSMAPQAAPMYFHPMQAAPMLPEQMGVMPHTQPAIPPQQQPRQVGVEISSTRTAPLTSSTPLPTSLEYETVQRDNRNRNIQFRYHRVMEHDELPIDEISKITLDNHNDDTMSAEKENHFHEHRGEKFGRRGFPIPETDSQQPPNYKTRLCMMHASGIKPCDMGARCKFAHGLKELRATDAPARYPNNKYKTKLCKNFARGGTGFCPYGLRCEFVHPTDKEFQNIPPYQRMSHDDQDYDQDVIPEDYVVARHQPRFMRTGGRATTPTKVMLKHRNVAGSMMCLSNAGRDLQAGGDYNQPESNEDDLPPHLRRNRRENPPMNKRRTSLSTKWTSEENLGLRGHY

[10] = A cytotoxicity screen of small molecule inhibitors of the PhoP region in Salmonella typhi identified in the primary screen. [Related pubchem assays: 1850, 1864, 1985 ]; format: functional

O=C(CSc1nc2ccccc2c(=O)n1C1CC1)NCc1ccccc1
IC50 [1]: 4.79 µM (active)

C=CCOc1ccc(/C=C2\C(=N)N3N=C(S(=O)(=O)CC)SC3=NC2=O)cc1OC
IC50 (Aminopeptidase N): 24.5 µM (active)

CCn1c(C)c(C)c2cc(C(=O)Nc3cccc(Cl)c3)ccc21
CC50 [2]: 30.4 µM (active)
CC50 [3]: > 40 µM (active)
AC50 [4]: 3.56 µM (active)
AC50 (Cytochrome P450 2C9): inconclusive

CCCc1cc(=O)oc2c(CN3CCN(C)CC3)c(O)c(Cl)cc12
IC50 (Aminopeptidase N): 42 µM (active)

CNc1oc(C)nc1S(=O)(=O)c1ccc(C)cc1
AC50 (Cytochrome P450 2C19): 31.6 µM (inconclusive)
AC50 (Cytochrome P450 2C9): inconclusive

Cc1ccccc1C(O)(Cc1ccccc1)C1CN2CCC1CC2 (stereo not given)
EC50 [5]: 5.31 µM (active)
EC50 [6]: 14.5 µM (active)
EC50 [7]: 14.8 µM (active)

CN1CCN(c2ncc3nc(-c4cn(C)c5ccccc45)c(=O)n(C[C@H]4CCCO4)c3n2)CC1
AC50 (Cytochrome P450 1A2): 6.31 µM (inconclusive)
AC50 (Cytochrome P450 2C9): inconclusive

Cn1c(CN2CCCCC2)nc2cc(NC(=O)c3ccccc3Cl)ccc21
IC50 [1]: 13.5 µM (active)

CS(=O)(=O)N1CCC(C(=O)c2cccc(Cl)c2)CC1
IC50 (Aminopeptidase N): 41.1 µM (active)

Cc1cccc(C)c1OCC(O)CN (stereo not given)
EC50 [5]: 4.22 µM (active)

COCCOC(=O)c1c(C)oc2ccc(NS(=O)(=O)c3cccs3)cc12
IC50 (Aminopeptidase N): 48.5 µM (active)

Cn1c(=O)c2nc(-c3ccccc3)oc2c2ccccc21
AC50 (Cytochrome P450 2D6): 28.2 µM (inconclusive)
AC50 (Cytochrome P450 2C19): 28.2 µM (inconclusive)
AC50 (Cytochrome P450 2C9): inconclusive

Cc1sc2nc(CSc3ccccc3)nc(NCCN(C)C)c2c1C
EC50 [5]: 2.99 µM (active)

Cc1csc(NC(=O)CCN2C(=O)c3ccccc3S2(=O)=O)n1
IC50 [1]: 13.8 µM (active)

O=C(CCCN1C(=O)c2cccc3cccc(c23)C1=O)N1CCc2ccccc2C1
AC50 (Cytochrome P450 2D6): 22.4 µM (inconclusive)
AC50 (Cytochrome P450 2C9): inconclusive

Cc1cccc(NC(=O)c2sc3nc(-c4ccccc4)cn3c2C)n1
EC50 [8]: > 300 µM (not active)
EC50 [9]: > 300 µM (not active)
EC50 [10]: > 50 µM (active)

CN(C)C(=O)c1ccc(-c2nc(NC3CCNCC3)c3ccccc3n2)cc1
AC50 (Cytochrome P450 1A2): 20 µM (inconclusive)
AC50 (Cytochrome P450 2C9): inconclusive

CN(CCc1ccccn1)C(=O)CC1C(=O)NCCN1Cc1cccc(F)c1 (stereo not given)
EC50 [5]: 2.37 µM (active)

COc1ccccc1CCC(=O)Nc1cc(S(=O)(=O)N2CCCCC2)ccc1N1CCN(C)CC1
EC50 [5]: 0.944 µM (active)

CCN1CCN(C(=O)c2ccc3nc(-c4ccccc4)c(-c4ccccc4)nc3c2)CC1
IC50 [1]: 15.6 µM (active)

CC(C)C(=O)Nc1cccc(NC(=O)c2ccc(Cl)cc2Cl)c1
IC50 [1]: 7.24 µM (active)

Nc1ccn([C@@H]2CC[C@H](CO)O2)c(=O)n1
AC50 (Cytochrome P450 2C9): inconclusive
